Source: patent publication US8883782B2, “Spiro-tetracyclic ring compounds as beta-secretase modulators and methods of use” (Amgen Inc., priority 2010, dated 2014)
pIC50: −log10 of the molar value. Like-named read-outs stand apart in the source and are kept apart here.

Tests used:
[1] = biological target: Beta Secretase enzyme (BACE) (Homo sapiens, UniProt P56817); assay: In vitro enzymatic BACE FRET (fluorescence resonance energy transfer) assay; format: biochemical; conditions: average IC50, enzyme assay; read-out: BACE 1 FRET assay
Summary of the method: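 Fluorescence read after Tris quench (pH raised to neutrality) of a one-hour BACE reaction. Buffer: acetate 0.05 M, pH 4.2, with 100 uM genapol and 10% DMSO final; started by adding 50 nM FRET peptide substrate spanning the cleavage site.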

[2] = system: Aβ40 in conditioned medium of cells stably expressing Amyloid Precursor Protein (APP); assay: In vitro BACE cell-based assay (Aβ40 in conditioned medium, sandwich ELISA); conditions: Homo sapiens, read-out: HEK cell assay
Summary of the method: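 Quantification relied on pAb40/6E10 sandwich ELISA with Europium fluorescence counts, and IC50 was fitted versus concentration.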

[3] = HEK293, average IC50, HEK cells

Chain of Beta Secretase enzyme (BACE) (P56817 46-501, species assumed): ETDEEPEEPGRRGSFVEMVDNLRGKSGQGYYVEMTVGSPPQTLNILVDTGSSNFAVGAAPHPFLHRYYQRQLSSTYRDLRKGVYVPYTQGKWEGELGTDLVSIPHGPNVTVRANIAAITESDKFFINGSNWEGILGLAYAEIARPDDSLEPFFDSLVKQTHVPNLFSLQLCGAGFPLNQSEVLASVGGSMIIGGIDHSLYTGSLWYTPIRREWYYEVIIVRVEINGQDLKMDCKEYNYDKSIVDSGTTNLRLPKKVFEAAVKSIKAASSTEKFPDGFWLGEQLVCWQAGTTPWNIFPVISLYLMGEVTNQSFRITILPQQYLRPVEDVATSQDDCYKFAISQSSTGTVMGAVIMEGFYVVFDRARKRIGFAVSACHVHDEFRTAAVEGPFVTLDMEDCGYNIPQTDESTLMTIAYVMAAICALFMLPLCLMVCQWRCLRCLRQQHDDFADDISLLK

pIC50 [1]	pIC50 [2, 3]	pIC50 ([2]; HEK293, average IC50)	SMILES
5.35	5.41	–	COc1ccc2c(c1)[C@@]1(COC(N)=N1)c1cc(C3(O)CCOCC3)cc(F)c1O2 [Example 938, 4-((4S)-2-amino-4′-fluoro-7′-methoxyspiro[1,3-oxazole-4,9′-xanthen]-2′-yl)tetrahydro-2H-pyran-4-ol]
7.99	–	7.64	N#Cc1cncc(-c2ccc3c(c2)[C@@]2(COC(N)=N2)c2cc(C4=CCOCC4)ccc2O3)c1 [Example 190, 5-((4R)-2-amino-7′-(3,6-dihydro-2H-pyran-4-yl)spiro[1,3-oxazole-4,9′-xanthen]-2′-yl)-3-pyridinecarbonitrile]
9.70	–	8.30	NC1=N[C@@]2(CS1)c1cc(-c3cccnc3)ccc1Oc1c2cc(-c2ccnc(F)c2)nc1F [Example 1030, (5S)-1-fluoro-3-(2-fluoro-4-pyridinyl)-7-(3-pyridinyl)spiro[chromeno[2,3-c]pyridine-5,4′-[1,3]thiazol]-2′-amine]
8.60	–	7.62	COC(C)(C)COc1cnc2c(c1)[C@]1(COC(N)=N1)c1cc(-c3cccc(C(F)(F)F)c3)ccc1O2 [Example 317, (5S)-3-(2-methoxy-2-methylpropoxy)-7-(3-(trifluoromethyl)phenyl)spiro[chromeno[2,3-b]pyridine-5,4′-[1,3]oxazol]-2′-amine]
7.29	–	6.72	Cn1ccc(-c2cnc3c(c2)[C@]2(COC(N)=N2)c2cc(C#CC4CC4)ccc2O3)n1 [Example 183, (5S)-7-(cyclopropylethynyl)-3-(1-methyl-1H-pyrazol-3-yl)spiro[chromeno[2,3-b]pyridine-5,4′-[1,3]oxazol]-2′-amine]
8.54	–	7.65	CC1(COc2cc3c(cc2F)Oc2ccc(-c4cccnc4F)cc2[C@@]32COC(N)=N2)COC1 [Example 360, (4S)-3′-fluoro-7′-(2-fluoro-3-pyridinyl)-2′-((3-methyl-3-oxetanyl)methoxy)spiro[1,3-oxazole-4,9′-xanthen]-2-amine]
9.22	7.80	–	CC(C)(C#N)COc1cc(F)c2c(c1)[C@]1(COC(N)=N1)c1cc(-c3cncnc3)c(F)cc1O2 [Example 667, 3-(((4S)-2-amino-4′,6′-difluoro-7′-(5-pyrimidinyl)spiro[1,3-oxazole-4,9′-xanthen]-2′-yl)oxy)-2,2-dimethylpropanenitrile]
7.95	7.16	–	N#Cc1ncccc1-c1ccc2c(c1)[C@@]1(COC(N)=N1)c1cc(C3=CCOCC3)ncc1O2 [Example 389, 3-((5S)-2′-amino-3-(3,6-dihydro-2H-pyran-4-yl)spiro[chromeno[2,3-c]pyridine-5,4′-[1,3]oxazol]-7-yl)-2-pyridinecarbonitrile]
9.40	–	8.41	NC1=N[C@@]2(CO1)c1cc(-c3cncc(F)c3)ccc1Oc1c(F)cc(C3=CCCOC3)cc12 [Example 278, (4S)-2′-(5,6-dihydro-2H-pyran-3-yl)-4′-fluoro-7′-(5-fluoro-3-pyridinyl)spiro[1,3-oxazole-4,9′-xanthen]-2-amine]
5.91	5.66	–	COc1ccncc1-c1ccc2c(c1)[C@@]1(COC(N)=N1)c1cc(Cl)ncc1O2 [Example 652, (5S)-3-chloro-7-(4-methoxy-3-pyridinyl)spiro[chromeno[2,3-c]pyridine-5,4′-[1,3]oxazol]-2′-amine]
7.82	6.09	–	COc1ccnc(F)c1-c1ccc2c(c1)[C@@]1(COC(N)=N1)c1cc(Cl)ncc1O2 [Example 680, (5S)-3-chloro-7-(2-fluoro-4-methoxy-3-pyridinyl)spiro[chromeno[2,3-c]pyridine-5,4′-[1,3]oxazol]-2′-amine]
7.67	–	6.68	NC1=N[C@]2(CO1)c1cc(C3=CCOCC3)cc(F)c1Oc1ccc(-c3cccnc3)c(F)c12 [Example 1046, (4R)-7′-(3,6-dihydro-2H-pyran-4-yl)-1′,5′-difluoro-2′-(3-pyridinyl)spiro[1,3-oxazole-4,9′-xanthen]-2-amine]
